Columns and labels:
Plasmin = target: T1, Plasmin (Homo sapiens, UniProt P00747); assay: Serine protease selectivity, chromogenic substrate (Kass), plasmin; assay type: biochemical; conditions: substrate H-D-Val-Leu-Lys-p-nitroanilide
T1 construct: Human plasmin is purchased; purchased Boehringer Mannheim, Indianapolis, Ind
Method: (§1) The assay is carried out by mixing 50 μL buffer (0.03M Tris, 0.15M NaCl, pH 7.4) with 25 μL of bovine thrombin or human thrombin solution (0.21 mg/mL of thrombostat bovine thrombin, Parke-Davis, or purified human thrombin, Enzyme Research Laboratories, South Bend, Ind., at about 8 NIH units/mL, in the same buffer) and 25 μL of test compound in a solvent (in 50% aqueous methanol, v:v). The 150 μL of an aqueous solution of the chromogenic substrate (at 0.25 mg/mL) are added and the rates of hydrolysis of the substrate are measured by monitoring the reactions at 405 nm for the release of p-nitroaniline. Standard curves are constructed by plotting free thrombin concentration against hydrolysis rate. The hydrolysis rates observed with test compounds are then converted to "free thrombin" values in the respective assays by use of the standard curves. The bound thrombin (bound to test compound) is calculated by subtracting the amount of free thrombin observed in each assay from the known initial amount of thrombin used in the assay. The amount of free inhibitor in each assay is calculated by subtracting the number of moles of bound thrombin from the number of moles of added inhibitor (test compound).
(§2) Kass is calculated for a range of concentrations of test compounds and the mean value is reported in units of liter per mole.
(§3) By substantially following the procedures described above for human thrombin, and using other human blood coagulation system serine proteases and proteases of the fibrinolytic system with the appropriate chromogenic substrates, identified below, selectivity of the compounds of the present invention with respect to the coagulation factor serine proteases and with respect to the fibrinolytic system serine proteases are evaluated as well as their substantial lack of interference with serine proteases of the fibrinolytic system. Thrombin inhibitors preferably should spare fibrinolysis induced by urokinase, tissue plasminogen activator (t-PA) and streptokinase. This would be important to the therapeutic use of such agents as an adjunct to streptokinase, t-PA or urokinase thrombolytic therapy and to the use of such agents as an endogenous fibrinolysis-sparing (with respect to t-PA and urokinase) antithrombotic agent. In addition to the lack of interference with the amidase activity of the fibrinolytic proteases, such fibrinolytic system sparing can be studied by the use of human plasma clots and their lysis by the respective fibrinolytic plasminogen activators.
(§4) Human plasmin is purchased from Boehringer Mannheim, Indianapolis, Ind.; nt-PA is purchased as single chain activity reference from American Diagnostica, Greenwich, Conn.; modified-t-PA6 (mt-PA6) is prepared at Eli Lilly and Company by procedure known in the art (See, Burck, et al., J. Biol. Chem., 265, […] (1990). Plasmin chromogenic substrate H-D-Val-Leu-Lys-p-nitroanilide and tissue plasminogen activator (t-PA) substrate H-D-Ile-Pro-Arg-p-nitroanilide are purchased from Kabi Vitrum, Stockholm, Sweden.

Trypsin = target: T2, Trypsin (Bos taurus, UniProt P00760); assay: Serine protease selectivity, chromogenic substrate (Kass), trypsin; assay type: biochemical, bovine; conditions: substrate N-Benzoyl-Phe-Val-Arg-p-nitroanilide
T2 construct: Bovine trypsin is purchased; purchased Worthington Biochemicals, Freehold, N.J
T2 sequence (P00760 24-246): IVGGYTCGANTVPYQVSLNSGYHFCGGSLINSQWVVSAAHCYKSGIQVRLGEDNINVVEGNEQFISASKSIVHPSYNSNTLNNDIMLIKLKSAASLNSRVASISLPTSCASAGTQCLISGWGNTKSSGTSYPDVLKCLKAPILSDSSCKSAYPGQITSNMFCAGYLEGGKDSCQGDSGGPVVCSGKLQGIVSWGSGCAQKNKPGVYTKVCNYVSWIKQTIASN
Method: as §1, §2, §3
(§5) Human factors X, Xa, IXa, XIa, and XIIa are purchased from Enzyme Research Laboratories, South Bend, Ind.; human urokinase from Leo Pharmaceuticals, Denmark; and recombinant activated Protein C (aPC) is prepared at Eli Lilly and Co. substantially according to U.S. Pat. No. 4,981,952. Chromogenic substrates: N-Benzoyl-Ile-Glu-Gly-Arg-p-nitroanilide (for factor Xa); N-Cbz-D-Arg-Gly-Arg-p-nitroanilide (for factor IXa assay as the factor Xa substrate); Pyroglutamyl-Pro-Arg-p-nitroanilide (for Factor XIa and for aPC); H-D-Pro-Phe-Arg-p-nitroanilide (for factor XIIa); and Pyroglutamyl-Gly-Arg-p-nitroanilide (for urokinase); are purchased from KabiVitrum, Stockholm, Sweden, or from Midwest Biotech, Fishers, Ind. Bovine trypsin is purchased from Worthington Biochemicals, Freehold, N.J., and human plasma kallikrein from Kabi Vitrum, Stockholm, Sweden. Chromogenic substrate H-D-Pro-Phe-Arg-p-nitroanilide for plasma kallikrein is purchased from Kabi Vitrum, Stockholm, Sweden. N-Benzoyl-Phe-Val-Arg-p-nitroanilide, the substrate for human thrombin and for trypsin, is synthesized according to procedures described above for the compounds of the present invention, using known methods of peptide coupling from commercially available reactants or purchased from Midwest Biotech, Fishers, Ind.

Human plasma [1] = assay: Human plasma anticoagulation, prothrombin time (PT); assay type: biochemical; conditions: concentration required to double the PT, linear extrapolation
Method: (§6) Dog plasma and rat plasma is obtained from conscious mixed-breed hounds (either sex, Hazelton-LRE, Kalamazoo, Mich., U.S.A.) or from anesthetized male Sprague-Dawley rats (Harlan Sprague-Dawley, Inc., Indianapolis, Ind., U.S.A.) by venipuncture into 3.8 percent citrate. Fibrinogen is prepared from in-date ACD human blood as the fraction I-2 according to previous procedures and specifications. Smith, Biochem. J., 185, 1-11 (1980); and Smith, et al., Biochemistry, 11, 2958-2967 (1972). Human fibrinogen is also purchased as 98 percent pure/plasmin free from American Diagnostica, Greenwich, Conn. Coagulation reagents ACTIN, Thromboplastin, and Human plasma are from Baxter Healthcare Corp., Dade Division, Miami, Fla. Bovine thrombin from Parke-Davis ([…], Mich.) is used for coagulation assays in plasma.
(§7) Coagulation assay procedures are as previously described. Smith, et al., Thrombosis Research, 50, 163-174 (1988). A CoAScreener coagulation instrument (American LABor, Inc.) is used for all coagulation assay measurements. The prothrombin time (PT) is measured by adding 0.05 mL saline and 0.05 mL Thromboplastin-C reagent to 0.05 mL test plasma. The activated partial thromboplastin time (APTT) is measured by incubation of 0.05 mL test plasma with 0.05 mL Actin reagent for 120 seconds followed by 0.05 mL CaCl2 (0.02M). The thrombin time (TT) is measured by adding 0.05 mL saline and 0.05 mL thrombin (10 NIH units/mL) to 0.05 mL test plasma. The compounds of formula I are added to human or animal plasma over a wide range of concentrations to determine prolongation effects on the APTT, PT, and TT assays. Linear extrapolations are performed to estimate the concentrations required to double the clotting time for each assay.

Human Thrombin = Human Thrombin (Homo sapiens, UniProt P00734); assay: Inhibition of amidase activity of thrombin (Kass); assay type: biochemical; conditions: apparent association constant, mean over a range of concentrations
Method: as §1
The Kass value is the hypothetical equilibrium constant for the reaction between thrombin and the test compound (I). [drawing 54]
as §2

Human plasma [2] = assay: Human plasma anticoagulation, thrombin time (TT); assay type: biochemical; conditions: concentration required to double the thrombin time, linear extrapolation
Method: as §6, §7

factor Xa = target: T3, factor Xa (Homo sapiens, UniProt P00742); assay: Serine protease selectivity, chromogenic substrate (Kass), factor Xa; assay type: biochemical; conditions: substrate N-Benzoyl-Ile-Glu-Gly-Arg-p-nitroanilide
T3 construct: Human factors X, Xa, IXa, XIa, and XIIa are purchased; purchased Enzyme Research Laboratories, South Bend, Ind
T3 sequence (P00742 235-488 limits assumed): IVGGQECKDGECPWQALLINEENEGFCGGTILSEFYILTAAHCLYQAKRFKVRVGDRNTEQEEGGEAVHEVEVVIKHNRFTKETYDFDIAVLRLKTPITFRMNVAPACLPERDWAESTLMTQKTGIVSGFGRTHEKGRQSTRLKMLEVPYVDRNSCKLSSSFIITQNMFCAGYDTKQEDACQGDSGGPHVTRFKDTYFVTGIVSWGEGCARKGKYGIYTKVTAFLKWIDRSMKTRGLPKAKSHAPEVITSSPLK
T3 sequence (P00742 41-179 partner limits assumed): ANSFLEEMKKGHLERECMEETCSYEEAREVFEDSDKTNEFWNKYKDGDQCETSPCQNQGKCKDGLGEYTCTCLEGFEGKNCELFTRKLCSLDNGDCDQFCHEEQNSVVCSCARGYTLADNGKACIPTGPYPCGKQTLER
Method: as §1, §2, §3, §5

Human plasma [3] = assay: Human plasma anticoagulation, activated partial thromboplastin time (APTT); assay type: biochemical; conditions: concentration required to double the APTT, linear extrapolation
Method: as §6, §7

t-PA = target: T4, t-PA (Homo sapiens, UniProt P00750); assay: Serine protease selectivity, chromogenic substrate (Kass), t-PA; assay type: biochemical; conditions: substrate H-D-Ile-Pro-Arg-p-nitroanilide
T4 construct: purchased American Diagnostica, Greenwich, Conn
T4 sequence (P00750 36-562): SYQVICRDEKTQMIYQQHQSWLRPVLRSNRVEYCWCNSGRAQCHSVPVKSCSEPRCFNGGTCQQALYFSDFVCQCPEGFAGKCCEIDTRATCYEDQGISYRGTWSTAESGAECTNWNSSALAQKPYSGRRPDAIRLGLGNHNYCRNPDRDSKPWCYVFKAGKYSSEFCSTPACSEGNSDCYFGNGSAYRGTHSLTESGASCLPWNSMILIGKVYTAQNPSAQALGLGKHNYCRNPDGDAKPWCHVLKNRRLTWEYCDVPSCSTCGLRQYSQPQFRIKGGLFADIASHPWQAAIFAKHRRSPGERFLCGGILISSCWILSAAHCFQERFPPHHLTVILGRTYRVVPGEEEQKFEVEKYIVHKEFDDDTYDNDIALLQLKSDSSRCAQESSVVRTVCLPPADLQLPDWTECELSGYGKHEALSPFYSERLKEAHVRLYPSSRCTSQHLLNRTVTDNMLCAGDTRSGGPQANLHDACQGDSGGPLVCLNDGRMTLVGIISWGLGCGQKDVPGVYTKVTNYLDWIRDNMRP
Method: as §1, §2, §3, §4

T1 sequence (P00747 581-810 limits assumed): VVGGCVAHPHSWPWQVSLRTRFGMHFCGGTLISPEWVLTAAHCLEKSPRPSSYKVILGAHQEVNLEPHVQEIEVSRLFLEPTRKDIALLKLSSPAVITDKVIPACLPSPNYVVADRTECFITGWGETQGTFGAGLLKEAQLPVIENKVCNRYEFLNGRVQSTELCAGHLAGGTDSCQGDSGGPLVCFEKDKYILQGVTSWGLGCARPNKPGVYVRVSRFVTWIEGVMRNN
T1 sequence (P00747 97-580 partner limits assumed): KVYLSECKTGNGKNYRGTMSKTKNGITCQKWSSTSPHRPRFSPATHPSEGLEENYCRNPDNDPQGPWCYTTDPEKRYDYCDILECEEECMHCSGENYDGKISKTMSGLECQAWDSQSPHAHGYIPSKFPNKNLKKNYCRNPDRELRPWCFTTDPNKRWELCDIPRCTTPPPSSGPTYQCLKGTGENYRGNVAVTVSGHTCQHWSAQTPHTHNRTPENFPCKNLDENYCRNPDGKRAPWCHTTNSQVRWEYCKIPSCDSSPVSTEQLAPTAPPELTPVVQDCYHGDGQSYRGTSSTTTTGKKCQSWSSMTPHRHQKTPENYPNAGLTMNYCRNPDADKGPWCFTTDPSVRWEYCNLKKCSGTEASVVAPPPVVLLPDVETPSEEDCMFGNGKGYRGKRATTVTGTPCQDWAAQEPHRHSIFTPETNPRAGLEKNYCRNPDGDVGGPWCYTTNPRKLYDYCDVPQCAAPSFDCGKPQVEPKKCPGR

SMILES | Enzyme Kass, Plasmin (Plasmin) | Enzyme Kass, Trypsin (Trypsin) | Enzyme Kass, Human Thrombin (Human Thrombin) | Enzyme Kass, Xa (factor Xa) | Enzyme Kass, t-PA (t-PA) | 2x Clotting time, PT (Human plasma [1]) | 2x Clotting time, TT (Human plasma [2]) | 2x Clotting time, APTT (Human plasma [3])
Cl.N=C(N)NCCC[C@@H](C=O)NC(=O)[C@@H]1C[C@@H]2CCCC[C@@H]2N1C(=O)[C@@H](Cc1ccccc1)NCC(=O)O (relative stereo) [Example 24, HOOCCH2 -D-Phe-cis-Ohi-ArgH.HCl] | 16.3 L/mol × 10^6 | 424 L/mol × 10^6 | 1,160 L/mol × 10^6 | 1.70 L/mol × 10^6 | 0.075 L/mol × 10^6 | 727 ng/mL | 11 ng/mL | 490 ng/mL
Cl.Cl.NC(N)=NCCCC(C=O)NC(=O)C1CC(Oc2ccccc2)CN1C(=O)C1CC2CCCCC2CN1 [Example 26, D-3-cis-Piq-Pro(4-cis-phenoxy)-ArgH.2 HCl] | 11.3 L/mol × 10^6 | 718 L/mol × 10^6 | 15.6 L/mol × 10^6 | 2.53 L/mol × 10^6 | – | 1,322 ng/mL | 82 ng/mL | 392 ng/mL
Cl.Cl.N=C(N)NCCC[C@@H](C=O)NC(=O)[C@@H]1C[C@H](c2ccccc2)CN1C(=O)[C@H]1CCCCN1 (relative stereo) [Example 6, D-hPro-Pro(4-cis-phenyl)-ArgH.2 HCl] | 5.3 L/mol × 10^6 | 240 L/mol × 10^6 | 2.9 L/mol × 10^6 | 5.7 L/mol × 10^6 | 0.065 L/mol × 10^6 | 4,100 ng/mL | 340 ng/mL | 840 ng/mL
Cl.Cl.N=C(N)NCCCC(C=O)NC(=O)C1CC2CCCCC2N1C(=O)C1CC2CCCCC2CN1 [Example 25, D-3-cis-Piq-cis-Ohi-ArgH.2 HCl] | 12.4 L/mol × 10^6 | 1,040 L/mol × 10^6 | 82 L/mol × 10^6 | 0.67 L/mol × 10^6 | – | 1,232 ng/mL | 25 ng/mL | 548 ng/mL

Second part, led by results:

Enzyme Kass, Plasmin (Plasmin) | Enzyme Kass, Trypsin (Trypsin) | Enzyme Kass, Human Thrombin (Human Thrombin) | Enzyme Kass, Xa (factor Xa) | Enzyme Kass, t-PA (t-PA) | SMILES | 2x Clotting time, PT (Human plasma [1]) | 2x Clotting time, TT (Human plasma [2]) | 2x Clotting time, APTT (Human plasma [3])
2.0 L/mol × 10^6 | 77 L/mol × 10^6 | 8.2 L/mol × 10^6 | 7.9 L/mol × 10^6 | 0.19 L/mol × 10^6 | CC(C)CC[C@H]1C[C@@H](C(=O)N[C@H](C=O)CCCNC(=N)N)N(C(=O)[C@H]2CCCCN2)C1.Cl.Cl (relative stereo) [Example 4, D-homoprolyl-L-cis-4-isoamyl-prolyl-L-argininal dihydrochloride] | 3,100 ng/mL | 130 ng/mL | 630 ng/mL
0.27 L/mol × 10^6 | 20.30 L/mol × 10^6 | 0.41 L/mol × 10^6 | 0.14 L/mol × 10^6 | – | CC(C)CC[C@H]1C[C@@H](C(=O)N[C@H](C=O)CCCNC(=N)N)N(C(=O)C2NCCC3CCCCC32)C1.Cl.Cl (relative stereo) [Example 28, 1-Piq-Pro(4-cis-isoamyl)-ArgH.2 HCl] | 43,401 ng/mL | 3,637 ng/mL | 22,727 ng/mL
14.0 L/mol × 10^6 | 633 L/mol × 10^6 | 5.4 L/mol × 10^6 | 11.6 L/mol × 10^6 | – | CC(C)CC[C@H]1C[C@@H](C(=O)N[C@H](C=O)CCCNC(=N)N)N(C(=O)[C@H]2CC3CCCCC3CN2)C1.Cl.Cl (relative stereo) [Example 27, D-3-cis-Piq-Pro(4-cis-isoamyl)-ArgH.2 HCl] | 1,232 ng/mL | 116 ng/mL | 395 ng/mL
